According to US7834164B2 (priority 2006, dated 2010):
Bridge positions count the residues as written; N and C are the ends. Square brackets hold non-standard residues; d marks the D form. Peptide text beside a SMILES is read from it. 1Nal = N[C@@H](Cc1cccc2ccccc12)C(=O)O

Legend:
human Kv1.1 = molecular target: T1, human Kv1.1 (Homo sapiens, UniProt Q09470); type: cell-based; conditions: read-out: Kv1.1 Analogue Activity (IC50)
T1 construct: expressed in transfected cells; host or cells: HEK293

[1] = test system: IFN-g production in human whole blood; type: cell-based
[2] = test system: IL-2 production in human whole blood; type: cell-based
[3] = test system: CD40L on T cells in human whole blood; type: cell-based
[4] = test system: IFNγ production from human PBMCs; type: cell-based
[5] = test system: AT-EAE model of multiple sclerosis; parameters: species or system Lewis rats; conditions: rat, in vivo, sc
[6] = rat, in vivo, iv, 1 mg/kg
[7] = test system: IL-2R on T cells in human whole blood; type: cell-based
[8] = test system: IFNγ production from human PBMCs; type: cell-based; remark: listed apart in the source

T1 sequence (Q09470 whole entry): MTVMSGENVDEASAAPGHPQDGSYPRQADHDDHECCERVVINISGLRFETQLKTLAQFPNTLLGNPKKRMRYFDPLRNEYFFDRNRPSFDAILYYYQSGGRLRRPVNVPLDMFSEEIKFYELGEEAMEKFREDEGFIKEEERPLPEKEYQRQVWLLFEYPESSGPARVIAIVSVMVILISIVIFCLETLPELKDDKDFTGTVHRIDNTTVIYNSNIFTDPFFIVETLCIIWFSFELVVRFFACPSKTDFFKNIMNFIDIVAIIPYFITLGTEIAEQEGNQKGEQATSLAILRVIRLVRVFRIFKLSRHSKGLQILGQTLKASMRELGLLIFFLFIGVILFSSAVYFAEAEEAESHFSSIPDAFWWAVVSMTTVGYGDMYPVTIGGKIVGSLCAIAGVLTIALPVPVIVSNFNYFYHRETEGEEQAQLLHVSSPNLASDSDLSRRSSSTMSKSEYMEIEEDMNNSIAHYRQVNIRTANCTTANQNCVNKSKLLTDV

SMILES | IC50 (human Kv1.1) [nM] | thapsigargin-induced IFN-g production in human whole blood (in words) [1] | thapsigargin-induced IL-2 production in human whole blood (in words) [2] | thapsigargin-induced upregulation of CD40L on T cells in human whole blood (in words) [3] | extent of inhibition of IFNg production [4] | average body weight lost [5] [g] | disease severity and survival (in words) [5] | onset of disease [5] [days] | time of significant suppression of Kv1.3 current (<70 POC) by 5% serum Test solutions [6] [h] | thapsigargin-induced upregulation of the IL-2R on T cells in human whole blood (in words) [7] | extent of inhibition of IFNγ production [8]
CC[C@H](C)[C@@H]1NC(=O)[C@H](Cc2cccc3ccccc23)NC(=O)[C@@H](NC(=O)[C@H](CCCCN)NC(=O)[C@@H](NC(=O)[C@H](CC(N)=O)NC(=O)[C@@H](NC(=O)[C@@H](NC(=O)[C@@H](NC(=O)CN)C(C)C)[C@@H](C)CC)[C@@H](C)CC)C(C)C)CSSC[C@@H]2NC(=O)[C@H](CCCCN)NC(=O)CNC(=O)[C@H](Cc3ccccc3)NC(=O)[C@H](CCCNC(=N)N)NC(=O)[C@H](CCSC)NC(=O)CNC(=O)[C@H](C)NC(=O)[C@H](CCCCN)NC(=O)[C@H](CCCCN)NC(=O)[C@@H]3CSSC[C@@H](C(=O)N[C@H](C(=O)N4CCC[C@H]4C(=O)N[C@@H](CCCCN)C(=O)O)[C@@H](C)O)NC(=O)[C@H](Cc4c[nH]cn4)NC(=O)[C@H](CSSC[C@H](NC(=O)[C@H](CCC(N)=O)NC(=O)[C@H](CCCNC(=N)N)NC(=O)[C@H](CO)NC1=O)C(=O)N[C@@H](CC(C)C)C(=O)N[C@@H](CCC(=O)O)C(=O)N1CCC[C@H]1C(=O)N3)NC(=O)[C@H](CCCCN)NC(=O)CNC(=O)[C@H](CC(N)=O)NC(=O)[C@H](CCSC)NC2=O [K9Nal] (H-GVIINVKC[1Nal]ISRQCLEPCKKAGMRFGKCMNGKCHCTPK-OH; disulfide 8-28, 14-33, 18-35) | 0.292 | – | – | – | – | – | – | – | – | – | –
CC[C@H](C)[C@@H]1NC(=O)[C@@H](NC(=O)[C@H](CO)NC(=O)[C@@H](N)CCCNC(=N)N)CSSC[C@@H](C(=O)O)NC(=O)[C@H]([C@@H](C)O)NC(=O)CNC(=O)[C@@H]2CSSC[C@@H]3NC(=O)[C@H](CCC(N)=O)NC(=O)[C@H](Cc4ccccc4)NC(=O)[C@H](C)NC(=O)[C@H]([C@@H](C)O)NC(=O)[C@H](CSSC[C@H](NC(=O)[C@H](Cc4ccccc4)NC(=O)[C@H](CO)NC(=O)[C@H](CC(C)C)NC(=O)[C@H](CCCNC(=N)N)NC(=O)[C@H](Cc4ccc(O)cc4)NC(=O)[C@H](CCCCN)NC(=O)[C@H](CCSC)NC(=O)[C@H](CO)NC(=O)[C@H](Cc4cnc[nH]4)NC(=O)[C@H](CCCCN)NC3=O)C(=O)N[C@@H](CCCNC(=N)N)C(=O)N[C@@H](CCCCN)C(=O)N[C@@H]([C@@H](C)O)C(=O)N2)NC(=O)[C@H](CCCNC(=N)N)NC(=O)[C@H](CO)NC(=O)[C@H](CCCCN)NC(=O)[C@@H]2CCCN2C(=O)[C@H]([C@@H](C)CC)NC(=O)[C@H]([C@@H](C)O)NC(=O)[C@H](CC(=O)O)NC1=O [ShK] | – | suppressed | suppressed | suppressed | only partial inhibition | 30 | developed severe disease and died | 4 | ≤ 1 | suppressed | partial inhibition
